Test results from patent US12312337B2, “Compounds and methods for treating cancer” (ANTIDOTE IP HOLDINGS, LLC, priority 2019, dated 2025).

Biological target: T1, human AhR (Homo sapiens, UniProt P35869)
T1 construct: INDIGO's Aryl Hydrocarbon Receptor (AhR) Reporter Cells include the luciferase reporter gene functionally linked to an AhR-responsive promoter
T1 sequence (P35869 11-848): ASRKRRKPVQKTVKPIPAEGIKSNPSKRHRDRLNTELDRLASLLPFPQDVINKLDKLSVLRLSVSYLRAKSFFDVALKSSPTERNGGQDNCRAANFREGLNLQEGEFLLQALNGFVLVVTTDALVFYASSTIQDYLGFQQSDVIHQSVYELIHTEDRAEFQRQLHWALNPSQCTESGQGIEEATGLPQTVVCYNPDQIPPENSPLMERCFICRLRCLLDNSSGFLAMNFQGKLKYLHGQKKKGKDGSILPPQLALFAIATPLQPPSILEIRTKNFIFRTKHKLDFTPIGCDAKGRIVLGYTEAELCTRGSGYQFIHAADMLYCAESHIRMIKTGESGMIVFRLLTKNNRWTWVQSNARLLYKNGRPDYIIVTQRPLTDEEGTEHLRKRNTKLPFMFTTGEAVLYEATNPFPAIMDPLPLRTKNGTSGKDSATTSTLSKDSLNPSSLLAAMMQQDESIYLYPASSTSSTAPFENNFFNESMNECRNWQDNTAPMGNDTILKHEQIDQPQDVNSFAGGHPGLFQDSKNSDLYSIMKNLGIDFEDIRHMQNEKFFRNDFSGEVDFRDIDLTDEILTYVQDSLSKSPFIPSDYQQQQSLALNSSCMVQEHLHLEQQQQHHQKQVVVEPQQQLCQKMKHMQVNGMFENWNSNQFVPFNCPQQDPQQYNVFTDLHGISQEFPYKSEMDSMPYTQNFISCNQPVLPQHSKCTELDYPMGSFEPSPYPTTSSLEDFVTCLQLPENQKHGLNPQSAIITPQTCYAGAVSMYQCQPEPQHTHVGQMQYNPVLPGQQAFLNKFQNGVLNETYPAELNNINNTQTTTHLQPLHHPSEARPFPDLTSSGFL
Assay: INDIGO AhR Reporter Assay (luciferase reporter cells, antagonist mode)
Assay type: cell-based
Conditions: antagonist mode with 50 nM of VAF347 (AhR agonist); 22-24 hours incubation; luciferase RLU
Text: INDIGO's Aryl Hydrocarbon Receptor (AhR) Reporter Cells include the luciferase reporter gene functionally linked to an AhR-responsive promoter. Thus, quantifying changes in luciferase expression in the treated reporter cells provides a sensitive surrogate measure of the changes in AhR activity. The principle application of this reporter assay is in the screening of test samples to quantify any functional activity, either agonist or antagonist, that they may exert against human AhR. Reporter Cells incorporate the cDNA encoding beetle luciferase, a 62 kD protein originating from the North American firefly (Photinus pyralis). Luciferase catalyzes the mono-oxidation of D-luciferin in a Mg^2+-dependent reaction that consumes 02 and ATP as co-substrates, and yields as products oxyluciferin, AMP, PPi, CO2, and photon emission. Luminescence intensity of the reaction is quantified using a luminometer, and is reported in terms of Relative Light Units (RLU's). In brief, 200 μl of Reporter Cells was dispensed into wells of the assay plate and pre-incubated for 4-6 hours. Following the pre-incubation period, culture media were discarded and 200 µl/well of the prepared 1×-concentration treatment media were added. Following 22-24 hours of incubation, treatment media were discarded and Luciferase Detection Reagent was added. The intensity of light emission (in units of “Relative Light Units” (RLU)) from each assay well was quantified using a plate-reading luminometer. The assay was run as a competitive binding assay in the antagonist mode with 50 nM of VAF347, a known AhR agonist.
In Table 4, IC50 values are reported as A, B, C, or D. A represents an IC50 value of less than 100 nM. B represents an IC50 value of equal or greater than 100 nM and less than 500 nM. C represents an IC50 value of equal or greater than 500 nM and less than 1 μM. D represents an IC50 value of equal or greater than 1 μM.

Structure (SMILES) | IC50
Cc1ccccc1/N=N/c1ccc(NC(=O)c2ccnn2C)c(C)c1 [CH223191, reference compound] | 100 to 500 nM
Cn1nc(C(C)(C)C)cc1NC(=O)c1cc2ncccc2cc1Cl [Compound 19, N-(3-tert-Butyl-1-methyl-1H-pyrazol-5-yl)-6-chloroquinoline-7-carboxamide] | 100 to 500 nM
Cn1nc(C(F)(F)F)cc1NC(=O)c1cc2ncccc2cc1Cl [Compound 27, 6-Chloro-N-[1-methyl-3-(trifluoromethyl)-1H-pyrazol-5-yl]quinoline-7-carboxamide] | < 100 nM
Cn1nc(-c2ccccc2F)cc1NC(=O)c1cc2ncccc2cc1Cl [Compound 29, 6-Chloro-N-[3-(2-fluorophenyl)-1-methyl-1H-pyrazol-5-yl]quinoline-7-carboxamide] | 100 to 500 nM
Cc1ccccc1-c1cc(NC(=O)c2cc3ncccc3cc2Cl)n(C)n1 [Compound 31, 6-Chloro-N-[1-methyl-3-(2-methylphenyl)-1H-pyrazol-5-yl]quinoline-7-carboxamide] | < 100 nM
CCN(CC)S(=O)(=O)c1cc(NC(=O)c2cc3ncccc3cc2Cl)ccc1F [Compound 33, 6-Chloro-N-(3-(N,N-diethylsulfamoyl)-4-fluorophenyl)quinoline-7-carboxamide] | 500 to 1000 nM
CCN(CC)S(=O)(=O)c1cc(NC(=O)c2cc3ncccc3cc2Cl)ccc1Cl [Compound 34, 6-Chloro-N-(4-chloro-3-(N,N-diethylsulfamoyl)phenyl)quinoline-7-carboxamide] | 100 to 500 nM
Cn1nc(C(F)(F)F)cc1NC(=O)c1ccc2cc(-c3ccccc3)cnc2c1 [Compound 40, N-[1-Methyl-3-(trifluoromethyl)-1H-pyrazol-5-yl]-3-phenylquinoline-7-carboxamide] | < 100 nM
Cn1nc(-c2ccccc2C(F)(F)F)cc1NC(=O)c1cc2ncccc2cc1Cl [Compound 44, 6-Chloro-N-(1-methyl-3-(2-(trifluoromethyl)phenyl)-1H-pyrazol-5-yl)quinoline-7-carboxamide] | 100 to 500 nM
Cn1nc(-c2cccc(C(F)(F)F)c2)cc1NC(=O)c1cc2ncccc2cc1Cl [Compound 48, 6-Chloro-N-{1-methyl-3-[3-(trifluoromethyl)phenyl]-1H-pyrazol-5-yl}quinoline-7-carboxamide] | 100 to 500 nM
Cc1ccc(F)cc1-c1cc(NC(=O)c2cc3ncccc3cc2Cl)n(C)n1 [Compound 50, 6-Chloro-N-[3-(5-fluoro-2-methylphenyl)-1-methyl-1H-pyrazol-5-yl]quinoline-7-carboxamide] | < 100 nM
Cc1ccc(Cl)cc1-c1cc(NC(=O)c2cc3ncccc3cc2Cl)n(C)n1 [Compound 51, 6-Chloro-N-[3-(5-chloro-2-methylphenyl)-1-methyl-1H-pyrazol-5-yl]quinoline-7-carboxamide] | < 100 nM
Cc1ccccc1-c1cnc2cc(C(=O)Nc3cc(C(F)(F)F)nn3C)ccc2c1 [Compound 52, N-[1-methyl-3-(trifluoromethyl)-1H-pyrazol-5-yl]-3-(2-methylphenyl) quinoline-7-carboxamide] | 100 to 500 nM
Cn1nc(C(F)(F)F)cc1NC(=O)c1ccc2cc(-c3ccccc3C(F)(F)F)cnc2c1 [Compound 53, N-[1-methyl-3-(trifluoromethyl)-1H-pyrazol-5-yl]-3-[2-(trifluoromethyl)phenyl]quinoline-7-carboxamide] | 500 to 1000 nM
Cn1nc(C(F)(F)F)cc1NC(=O)c1ccc2cc(-c3ccccc3F)cnc2c1 [Compound 54, 3-(2-Fluorophenyl)-N-[1-methyl-3-(trifluoromethyl)-1H-pyrazol-5-yl]quinoline-7-carboxamide] | < 100 nM
Cn1nc(C(F)(F)F)cc1NC(=O)c1ccc2cc(-c3cccc(C(F)(F)F)c3)cnc2c1 [Compound 55, N-[1-Methyl-3-(trifluoromethyl)-1H-pyrazol-5-yl]-3-[3-(trifluoromethyl)phenyl]quinoline-7-carboxamide] | > 1000 nM
Cc1cc(F)ccc1-c1cc(NC(=O)c2cc3ncccc3cc2Cl)n(C)n1 [Compound 57, 6-Chloro-N-(3-(4-fluoro-2-methylphenyl)-1-methyl-1H-pyrazol-5-yl) quinoline-7-carboxamide] | 100 to 500 nM
Cc1cc(Cl)ccc1-c1cc(NC(=O)c2cc3ncccc3cc2Cl)n(C)n1 [Compound 58, 6-Chloro-N-(3-(4-chloro-2-methylphenyl)-1-methyl-1H-pyrazol-5-yl)quinoline-7-carboxamide] | 100 to 500 nM
Cc1ccc(C(F)(F)F)cc1-c1cc(NC(=O)c2cc3ncccc3cc2Cl)n(C)n1 [Compound 59] | 100 to 500 nM
Cn1nc(C(F)(F)F)cc1NC(=O)c1ccc2cc(-c3cccc(F)c3)cnc2c1 [Compound 60, 3-(3-Fluorophenyl)-N-[1-methyl-3-(trifluoromethyl)-1H-pyrazol-5-yl]quinoline-7-carboxamide] | > 1000 nM
Cn1nc(C(F)(F)F)cc1NC(=O)c1ccc2cc(-c3ccc(F)cc3)cnc2c1 [Compound 61, 3-(4-Fluorophenyl)-N-[1-methyl-3-(trifluoromethyl)-1H-pyrazol-5-yl]quinoline-7-carboxamide] | < 100 nM
Cc1ccc(-c2cnc3cc(C(=O)Nc4cc(C(F)(F)F)nn4C)ccc3c2)cc1 [Compound 62, N-[1-Methyl-3-(trifluoromethyl)-1H-pyrazol-5-yl]-3-(4-methylphenyl) quinoline-7-carboxamide] | 100 to 500 nM
CCN1CCN(c2ccc(NC(=O)c3ccc4cc(-c5ccccc5)cnc4c3)cc2F)CC1 [Compound 64, N-[4-(4-ethylpiperazin-1-yl)-3-fluorophenyl]-3-phenylquinoline-7-carboxamide] | > 1000 nM
Cn1nc(C(F)(F)F)cc1NC(=O)c1ccc2cc(-c3cccc(Cl)c3)cnc2c1 [Compound 65, 3-(3-chlorophenyl)-N-[1-methyl-3-(trifluoromethyl)-1H-pyrazol-5-yl]quinoline-7-carboxamide] | > 1000 nM
Cn1nc(C(F)(F)F)cc1NC(=O)c1ccc2cc(-c3ccccc3Cl)cnc2c1 [Compound 66, 3-(2-Chlorophenyl)-N-[1-methyl-3-(trifluoromethyl)-1H-pyrazol-5-yl]quinoline-7-carboxamide] | 100 to 500 nM
Cn1nc(C(F)(F)F)cc1NC(=O)c1ccc2cc(-c3ccsc3)cnc2c1 [Compound 67, N-[1-Methyl-3-(trifluoromethyl)-1H-pyrazol-5-yl]-3-(thiophen-3-yl)quinoline-7-carboxamide] | < 100 nM
Cn1nc(C(F)(F)F)cc1NC(=O)c1ccc2cc(-c3cccs3)cnc2c1 [Compound 73, N-[1-Methyl-3-(trifluoromethyl)-1H-pyrazol-5-yl]-3-(thiophen-2-yl)quinoline-7-carboxamide] | < 100 nM
Cn1nc(C(C)(C)C)cc1NC(=O)c1ccc2cc(-c3ccc(F)cc3)cnc2c1 [Compound 74, 3-(4-Fluorophenyl)-N-[1-methyl-3-(tert-butyl)-1H-pyrazol-5-yl]quinoline-7-carboxamide] | 100 to 500 nM
Cn1nc(C(F)(F)F)cc1NC(=O)c1ccc2cc(-c3ccc(F)cc3F)cnc2c1 [Compound 75, 3-(2,4-Difluorophenyl)-N-[1-methyl-3-(trifluoromethyl)-1H-pyrazol-5-yl]quinoline-7-carboxamide] | < 100 nM
Cn1nccc1NC(=O)c1ccc2c(Oc3ccccc3)ccnc2c1 [Compound 76, N-(1-Methyl-1H-pyrazol-5-yl)-4-phenoxyquinoline-7-carboxamide] | > 1000 nM
